Where a SMILES comes first, the peptide text is derived from it. [ ]: non-standard residue; d: D form. The star is where a group is joined. AMC = Cc1cc(=O)oc2cc(N*)ccc12; Cha = N[CH](CC1CCCCC1)C(=O)O; MeOSuc = COC(=O)CCC(=O)*; Orn = NCCC[C@H](N)C(=O)O; Cbz = O=C(OCc1ccccc1)*; Boc = CC(C)(C)OC(=O)*; Ms = CS(=O)(=O)*
What was measured:
Set-up in all cases: scale not given: the % may be the effect or the level left
[1] = target: Prothrombin (Homo sapiens) (UniProt P00734); assay: Compound was evaluated for its inhibitory activity against thrombin at 100 uM concentration of substrate
[2] = target: Urokinase-type plasminogen activator (Homo sapiens) (UniProt P00749); assay: Compound was evaluated for its inhibitory activity against urokinase at 100 uM concentration of substrate
[3] = target: Cathepsin B (Homo sapiens) (UniProt P07858); assay: Compound was evaluated for its inhibitory activity against cathepsin B at 100 uM concentration of substrate
[4] = target: T1, Neutrophil elastase (Homo sapiens) (UniProt P08246); assay: Compound was evaluated for its inhibitory activity against elastase at 100 uM concentration of substrate
T1 sequence (whole entry): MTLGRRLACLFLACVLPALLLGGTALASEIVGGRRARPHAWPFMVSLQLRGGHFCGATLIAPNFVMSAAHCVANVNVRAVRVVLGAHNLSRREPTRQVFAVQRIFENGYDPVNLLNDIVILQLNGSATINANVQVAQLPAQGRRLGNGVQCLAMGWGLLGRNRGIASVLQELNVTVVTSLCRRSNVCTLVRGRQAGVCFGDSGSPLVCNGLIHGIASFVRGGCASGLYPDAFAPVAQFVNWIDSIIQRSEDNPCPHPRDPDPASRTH

[5] = target: Coagulation factor X (Homo sapiens) (UniProt P00742); assay: Compound was evaluated for its inhibitory activity against Coagulation factor X at 100 uM concentration of substrate
Sequence of Coagulation factor X (Homo sapiens) (P00742 41-179 limits assumed): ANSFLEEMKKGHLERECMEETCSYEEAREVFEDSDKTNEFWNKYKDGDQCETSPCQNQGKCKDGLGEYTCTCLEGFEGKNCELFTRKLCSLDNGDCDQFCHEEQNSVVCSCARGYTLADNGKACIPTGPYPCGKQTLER
Sequence of Coagulation factor X (Homo sapiens) (P00742 235-488 limits assumed): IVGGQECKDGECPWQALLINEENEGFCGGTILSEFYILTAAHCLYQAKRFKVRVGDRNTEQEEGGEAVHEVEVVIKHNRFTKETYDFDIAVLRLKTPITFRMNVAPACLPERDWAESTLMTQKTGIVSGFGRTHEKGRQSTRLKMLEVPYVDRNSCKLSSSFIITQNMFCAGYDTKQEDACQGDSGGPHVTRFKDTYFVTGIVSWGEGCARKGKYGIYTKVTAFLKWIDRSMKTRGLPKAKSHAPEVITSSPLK

In the case of `CC(=O)N[C@@H](Cc1ccccc1)C(=O)N1CCC[C@H]1C(=O)NC(CCCN=C(N)N)C(=O)Nc1ccc2c(C)cc(=O)oc2c1` (stereo partly specified), the Control [1] is reported as 5.4%.
In the case of `CC(=O)N[C@@H](Cc1ccccc1)C(=O)N[C@@H](C)C(=O)N[C@@H](CCCN=C(N)N)C(=O)Nc1ccc2c(C)cc(=O)oc2c1` (Ac-Phe-Ala-Arg-{AMC}), the Control [2] is reported as 2%.
Work on `CC(=O)N[C@@H](Cc1ccccc1)C(=O)N[C@@H](CCCN=C(N)N)C(=O)N[C@@H](CCCN=C(N)N)C(=O)Nc1ccc2c(C)cc(=O)oc2c1` (Ac-Phe-Arg-Arg-{AMC}) yielded a Control [3] of 46%.
Molecule `CC(=O)N[C@@H](Cc1ccccc1)C(=O)N[C@@H](CCCN=C(N)N)C(=O)N[C@@H](CCCCN)C(=O)Nc1ccc2c(C)cc(=O)oc2c1` (Ac-Phe-Arg-Lys-{AMC}) has a Control [3] of 37%.
`CC(=O)N[C@@H](Cc1ccccc1)C(=O)N[C@@H](CCC(=O)O)C(=O)N[C@H](C(=O)Nc1ccc2c(C)cc(=O)oc2c1)C(C)C` (Ac-Phe-Glu-Val-{AMC}) was tested, and the Control [4] was 1%.
For `CC(=O)NC(Cc1ccccc1)C(=O)NCC(=O)NC(CCCN=C(N)N)C(=O)Nc1ccc2c(C)cc(=O)oc2c1` (stereo not drawn) (Ac-Phe-Gly-Arg-{AMC}; configuration not given here), the Control [2] was 3.9%.
`CC(=O)N[C@@H](Cc1ccccc1)C(=O)N[C@@H](CCCCN)C(=O)N[C@@H](CCCN=C(N)N)C(=O)Nc1ccc2c(C)cc(=O)oc2c1` (Ac-Phe-Lys-Arg-{AMC}) was tested, and the Control [3] was 43%.
`CSCC[C@H](NC(=O)[C@H](Cc1ccccc1)NC(C)=O)C(=O)N[C@@H](CCCCN)C(=O)Nc1ccc2c(C)cc(=O)oc2c1` (Ac-Phe-Met-Lys-{AMC}) gave a Control [3] of 18%.
With `CC(=O)N[C@@H](Cc1ccccc1)C(=O)N1CCC[C@H]1C(=O)N[C@@H](C)C(=O)Nc1ccc2c(C)cc(=O)oc2c1` (Ac-Phe-Pro-Ala-{AMC}) the Control [4] was 0.8%.
In the case of `CC(=O)N[C@@H](Cc1ccccc1)C(=O)N1CCC[C@H]1C(=O)N[C@H](C(=O)Nc1ccc2c(C)cc(=O)oc2c1)C(C)C` (Ac-Phe-Pro-Val-{AMC}), the Control [4] is reported as 11%.
In the case of `CC(=O)N[C@@H](Cc1ccccc1)C(=O)N[C@@H](CO)C(=O)N[C@@H](CCCN=C(N)N)C(=O)Nc1ccc2c(C)cc(=O)oc2c1` (Ac-Phe-Ser-Arg-{AMC}), the Control [2] is reported as 4.2%.
`CC(=O)N[C@@H](Cc1ccccc1)C(=O)N[C@H](C(=O)N[C@H](C(=O)Nc1ccc2c(C)cc(=O)oc2c1)C(C)C)[C@@H](C)O` (Ac-Phe-Thr-Val-{AMC}) gave a Control [4] of 1.6%.
In the case of `CC(=O)N[C@@H](Cc1ccccc1)C(=O)N[C@@H](Cc1ccc(O)cc1)C(=O)N[C@@H](CCCN=C(N)N)C(=O)Nc1ccc2c(C)cc(=O)oc2c1` (Ac-Phe-Tyr-Arg-{AMC}), the Control [5] is reported as 1.1%.
Molecule `CC(=O)N[C@@H](Cc1ccccc1)C(=O)N[C@H](C(=O)N[C@@H](CCCCN)C(=O)Nc1ccc2c(C)cc(=O)oc2c1)C(C)C` (Ac-Phe-Val-Lys-{AMC}) has a Control [3] of 23%.
Work on `CC(=O)N[C@@H](Cc1ccccc1)C(=O)N[C@@H](CCCN)C(=O)N[C@@H](CCCN=C(N)N)C(=O)Nc1ccc2c(C)cc(=O)oc2c1` (Ac-Phe-[Orn]-Arg-{AMC}) yielded a Control [3] of 18%.
For `CC(=O)N[C@@H](Cc1ccccc1)C(=O)N[C@@H](CCCN)C(=O)N[C@@H](CCCCN)C(=O)Nc1ccc2c(C)cc(=O)oc2c1` (Ac-Phe-[Orn]-Lys-{AMC}), the Control [3] was 21%.
`Cc1cc(=O)oc2cc(NC(=O)[C@H](CCCN=C(N)N)NC(=O)[C@H](CCCCN)NC(=O)[C@H](CC(C)C)NC(=O)OC(C)(C)C)ccc12` (Boc-Leu-Lys-Arg-{AMC}) was tested, and the Control [3] was 100%.
`Cc1cc(=O)oc2cc(NC(=O)[C@H](CCCN=C(N)N)NC(=O)[C@@H]3CCCN3C(=O)CNC(=O)OCc3ccccc3)ccc12` (Cbz-Gly-Pro-Arg-{AMC}) gave a Control [1] of 100%.
Work on `Cc1cc(=O)oc2cc(NC(=O)C(CCCN=C(N)N)NC(=O)CNC(=O)C(N)CCC(=O)O)ccc12` (stereo not drawn) (H-Glu-Gly-Arg-{AMC}; configuration not given here) yielded a Control [2] of 100%.
For `COC(=O)CCC(=O)N[C@@H](C)C(=O)N[C@@H](C)C(=O)N1CCC[C@H]1C(=O)N[C@H](C(=O)Nc1ccc2c(C)cc(=O)oc2c1)C(C)C` (MeOSuc-AAPV-{AMC}), the Control [4] was 100%.
`Cc1cc(=O)oc2cc(NC(=O)C(CCCN=C(N)N)NC(=O)CNC(=O)C(CC3CCCCC3)NS(C)(=O)=O)ccc12` (stereo not drawn) (Ms-[Cha]-Gly-Arg-{AMC}; configuration not given here) gave a Control [5] of 100%.
